Legend:
PAP [1] = molecular target: T1, PAP (Homo sapiens, UniProt P15309); details: Vovk et al. 2008; cited from earlier work
T1 sequence (P15309 33-386): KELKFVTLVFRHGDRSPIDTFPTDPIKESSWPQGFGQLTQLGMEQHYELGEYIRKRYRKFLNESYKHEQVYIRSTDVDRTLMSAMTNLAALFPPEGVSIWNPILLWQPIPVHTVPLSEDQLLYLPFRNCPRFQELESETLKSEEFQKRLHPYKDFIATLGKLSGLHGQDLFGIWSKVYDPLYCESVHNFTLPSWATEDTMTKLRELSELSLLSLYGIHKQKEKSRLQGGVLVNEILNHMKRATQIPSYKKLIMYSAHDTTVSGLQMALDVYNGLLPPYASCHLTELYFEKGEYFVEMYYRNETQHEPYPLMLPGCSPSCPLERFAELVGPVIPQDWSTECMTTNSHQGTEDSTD

MC3T3-E1 cells [2] = experiment: Alizarin Red mineralization assay in MC3T3-E1 cells; assay type: cell-based, mouse; details: PA 25 μM down to 0.2 μM, MC3T3-E1 cells without PAP
MC3T3-E1 cells [3] = experiment: Inhibition of LuCaP 23.1 CM-induced mineralization in MC3T3-E1 cells (Alizarin Red); assay type: cell-based, mouse; details: 5 μM PA
Method: (§1) Cultured cells, HCO or MC3T3-E1, were seeded at 50,000 cells/well in MEM and 10% FBS. MM was added to all cultures 1-2 days after seeding and replaced every other day. MM, LuCaP 23.1 CM (5%, 10%, or 20%), PAP, lyophilized powder obtained from human prostatic fluid (CSI 14633A; CELL SCIENCES®, Canton, Mass.) or phosphonic acid, P-[phenyl[(phenylmethyl)amino]methyl]- (CAS#25881-35-0; AURORA FINE CHEMICALS™ LLC, San Diego, Calif.) was added to cultures typically on day 5-6, before mineralization occurred. After mineralization, cells were fixed in 10% formalin for 20 minutes and then washed. 2% Alizarin Red was added to air-dried plates. After washing, retained dye was extracted in a solution of 20% methanol and 10% acetic acid in water, and absorbance was measured at 405 nm.
(§2) The benzylaminophosphonic acids are inhibitors of PAP (see Beers S A, et al. (1996) Bioorg Med Chem 4:1693-1701). […] To determine if PA would reduce LuCaP 23.1 CM associated mineralization, MC3T3-E1 cells were treated with 5% to 20% LuCaP 23.1 CM with 5 μM PA.

PAP [4] = molecular target: T1, PAP; experiment: Inhibition of PAP-induced mineralization in MC3T3-E1 cells (Alizarin Red); assay type: cell-based; parameters: PAP, lyophilized powder obtained from human prostatic fluid; purchased CELL SCIENCES, Canton, Mass; CSI 14633A; host or cells: natural protein from human prostatic fluid; added to mouse MC3T3-E1 cells; details: MC3T3-E1 cells treated with 0.05 units of PAP
Method: as §1, §2

Row | Compound | PAP inhibition (PAP [1]) | inhibition of mineralization by PA alone (MC3T3-E1 cells [2]) | effect on mineralization (MC3T3-E1 cells [3]; 5% LuCaP 23.1 CM) | effect on mineralization (MC3T3-E1 cells [3]; 10% LuCaP 23.1 CM) | effect on mineralization (MC3T3-E1 cells [3]; 20% LuCaP 23.1 CM) | decrease in mineralization (PAP [4]; 3.15 μM PA) | decrease in mineralization (PAP [4]; 6.25 μM PA) | decrease in mineralization (PAP [4]; 12.5 μM PA) | decrease in mineralization (PAP [4]; 25 μM PA) | lowest PA concentration with significant effect on mineralization (PAP [4]; PA tested 25 μM to 0.2 μM)
1 | O=P(O)(O)[C@@H](NCc1ccccc1)c1ccccc1 (single isomer, unassigned) [R enantiomer of P-[phenyl[(phenylmethyl)amino]methyl]-, P-[phenyl[(phenylmethyl)amino]methyl]-] | potent inhibitor | – | – | – | – | – | – | – | – | –
2 | O=P(O)(O)C(NCc1ccccc1)c1ccccc1 (stereo not shown) [PA, [phenyl[(phenylmethyl)amino]methyl]-phosphonic acid] | – | No significant inhibition | significantly reduced mineralization | significantly reduced mineralization | significantly reduced mineralization | 97.9% | 92.1% | 95.6% | 97.6% | 0.4 µM

— US9682090B2, “Methods for treating and preventing prostate cancer bone metastases” (University of Washington, priority 2014, dated 2017)
